A word on the inhibition: it is the drop in the measured response relative to a control, in per cent.

The target in assay [1] is T1, bradykinin 1 receptor (B1R) of the rat (Rattus norvegicus, UniProt P97583).
T1 construct: expressed in transfected cells
T1 sequence (P97583 1-337): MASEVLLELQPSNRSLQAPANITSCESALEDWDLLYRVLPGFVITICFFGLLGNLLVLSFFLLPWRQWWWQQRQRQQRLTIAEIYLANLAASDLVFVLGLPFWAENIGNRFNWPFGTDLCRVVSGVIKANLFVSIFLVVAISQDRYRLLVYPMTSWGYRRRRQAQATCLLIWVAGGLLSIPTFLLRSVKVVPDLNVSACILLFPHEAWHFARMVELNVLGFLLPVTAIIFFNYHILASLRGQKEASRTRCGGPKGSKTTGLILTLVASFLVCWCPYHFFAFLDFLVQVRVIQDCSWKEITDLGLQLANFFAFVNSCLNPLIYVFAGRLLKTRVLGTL
Put plainly: FLIPR Ca2+ assay, B1R antagonism, rat. The format is cell-based. As to conditions: CHO K1 cells with rat B1R gene (rB1R cells), Des-Arg9-bradykinin at EC80, % inhibition compared with the maximum achievable inhibition; for inhibition at 10 µM: CHO-K1, 10 μM test substance, read-out: B1R antagonism, rat [10 μM] % inhibition. The essentials: (§1)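 CHO K1 cells stably expressing human or rat B1R, loaded with Fluo-4 and read in FLIPR (ex 488, em 540 nm, peak fluorescence). Test compound 10 μM preincubated 10-20 min, then EC80 agonist added (Lys-Des-Arg9-bradykinin for human, Des-Arg9-bradykinin for rat); % inhibition relative to maximum achievable inhibition.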

The target of assay [2] is T2, human bradykinin 1 receptor (B1R) (Homo sapiens, UniProt P46663).
T2 construct: expressed in transfected cells
T2 sequence (P46663 1-353): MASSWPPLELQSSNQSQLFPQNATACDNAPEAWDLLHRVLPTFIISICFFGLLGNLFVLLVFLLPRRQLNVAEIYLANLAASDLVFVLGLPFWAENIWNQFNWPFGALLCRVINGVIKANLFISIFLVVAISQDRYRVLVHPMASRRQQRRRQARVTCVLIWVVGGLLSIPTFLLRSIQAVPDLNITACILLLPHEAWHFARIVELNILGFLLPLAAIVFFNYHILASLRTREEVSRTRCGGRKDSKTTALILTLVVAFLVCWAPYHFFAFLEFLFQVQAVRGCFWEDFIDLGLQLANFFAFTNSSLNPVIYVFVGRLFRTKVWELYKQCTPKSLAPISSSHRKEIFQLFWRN
The experiment in a line: FLIPR Ca2+ assay, B1R antagonism, human. The format is cell-based. As to conditions: 10 μM test substance, CHO K1 cells with human B1R gene (hB1R cells), Lys-Des-Arg9-bradykinin at EC80, % inhibition compared with the maximum achievable inhibition; for inhibition at 10 µM: read-out: B1R antagonism, human [10 μM] % inhibition. The essentials:
as §1

For `COc1cc(C)c(S(=O)(=O)N2CCCCC2CCCC(=O)N2CCC(OCCN3CCCC3)(c3ccncc3)CC2)c(C)c1` (centres unmarked) [Example 90, 4-[1-[(4-methoxy-2,6-dimethyl-phenyl)sulfonyl]-piperidin-2-yl]-1-[4-pyridin-4-yl-4-(2-pyrrolidin-1-yl-ethoxy)-piperidin-1-yl]-butan-1-one], the results for the inhibition at 10 µM in assay [1] and in assay [2] were 102% and 100%, respectively.

Turning to `COc1cc(C)c(S(=O)(=O)N2CCCCC2CCCC(=O)N2CCC(OCCN3CCCC3)(c3ccncc3)CC2)c(C)c1` (centres unmarked) [Example 91, 4-[1-[(4-methoxy-2,6-dimethyl-phenyl)sulfonyl]-piperidin-2-yl]-1-[4-pyridin-4-yl-4-(2-pyrrolidin-1-yl-ethoxy)-piperidin-1-yl]-butan-1-one], in assay [1] (10 μM test substance, 10 µM), the “B1R antagonism, rat [10 μM] % inhibition” value is 103%. Moreover, the “B1R antagonism, human [10 μM] % inhibition” value in assay [2] worked out at 100%.

Turning to `O=C(CCCC1CCCCN1S(=O)(=O)c1ccc2ccccc2c1)N1CCC(OCCN2CCCC2)(c2cccnc2)CC1` (centres unmarked) [Example 95, 4-[1-(naphthalen-2-ylsulfonyl)-piperidin-2-yl]-1-[4-pyridin-3-yl-4-(2-pyrrolidin-1-yl-ethoxy)-piperidin-1-yl]-butan-1-one], the inhibition at 10 µM in assay [1] amounted to 101%; in assay [2], 95%.

As to `COc1cc(C)c(S(=O)(=O)N(CCOCC(=O)N2CCC(OCCN3CCCC3)(c3cccnc3)CC2)c2ccccc2)c(C)c1` [Example 98, 4-methoxy-2,6-dimethyl-N-[2-[2-oxo-2-[4-pyridin-3-yl-4-(2-pyrrolidin-1-yl-ethoxy)-piperidin-1-yl]-ethoxy]-ethyl]-N-phenyl-benzenesulfonic acid amide], the inhibition at 10 µM in assay [1] is 103%; in assay [2], 100%.

Take `COc1cc(C)c(S(=O)(=O)N(CCOCC(=O)N2CCC(OCCN3CCCC3)(c3cccc(F)c3)CC2)c2ccccc2)c(C)c1` [Example 99, N-[2-[2-[4-(3-fluorophenyl)-4-(2-pyrrolidin-1-yl-ethoxy)-piperidin-1-yl]-2-oxo-ethoxy]-ethyl]-4-methoxy-2,6-dimethyl-N-phenyl-benzenesulfonic acid amide]: the figures for the inhibition at 10 µM in assay [1] and in assay [2] were 97% and 99%, respectively.

Take `COc1cc(C)c(S(=O)(=O)N(CCOCC(=O)N2CCC(OCCN3CCCC3)(c3ccncc3)CC2)c2ccccc2)c(C)c1` [Example 100, 4-methoxy-2,6-dimethyl-N-[2-[2-oxo-2-[4-pyridin-4-yl-4-(2-pyrrolidin-1-yl-ethoxy)-piperidin-1-yl]-ethoxy]-ethyl]-N-phenyl-benzenesulfonic acid amide]: the inhibition at 10 µM in assay [1] was 102%; in assay [2], 100%.

`COc1cc(C)c(S(=O)(=O)N2c3ccccc3CCC2COCC(=O)N2CCC(OCCN3CCCC3)(c3cccnc3)CC2)c(C)c1` (centres unmarked) [Example 101, 2-[[1-[(4-methoxy-2,6-dimethyl-phenyl)sulfonyl]-1,2,3,4-tetrahydro-quinolin-2-yl]-methoxy]-1-[4-pyridin-3-yl-4-(2-pyrrolidin-1-yl-ethoxy)-piperidin-1-yl]-ethanone]: the inhibition at 10 µM in assay [1] turned out to be 102%; in assay [2], 100%.

For `COc1cc(C)c(S(=O)(=O)N2c3ccccc3CCC2COCC(=O)N2CCC(OCCN3CCCC3)(c3cccc(F)c3)CC2)c(C)c1` (centres unmarked) [Example 102, 1-[4-(3-fluorophenyl)-4-(2-pyrrolidin-1-yl-ethoxy)-piperidin-1-yl]-2-[[1-[(4-methoxy-2,6-dimethyl-phenyl)sulfonyl]-1,2,3,4-tetrahydro-quinolin-2-yl]-methoxy]-ethanone], the inhibition at 10 µM in assay [1] was determined as 98%; in assay [2], 99%.

As for `COc1cc(C)c(S(=O)(=O)N2c3ccccc3CCC2COCC(=O)N2CCC(OCCN3CCCC3)(c3ccncc3)CC2)c(C)c1` (centres unmarked) [Example 103, 2-[[1-[(4-methoxy-2,6-dimethyl-phenyl)sulfonyl]-1,2,3,4-tetrahydro-quinolin-2-yl]-methoxy]-1-[4-pyridin-4-yl-4-(2-pyrrolidin-1-yl-ethoxy)-piperidin-1-yl]-ethanone], the results for the inhibition at 10 µM in assay [1] and in assay [2] were 103% and 100%, respectively.

On to `COc1cc(C)c(S(=O)(=O)N2c3ccccc3OCC2COCC(=O)N2CCC(OCCN3CCCC3)(c3cccnc3)CC2)c(C)c1` (centres unmarked) [Example 106, 2-[[4-[(4-methoxy-2,6-dimethyl-phenyl)sulfonyl]-3,4-dihydro-2H-[1,4]benzoxazin-3-yl]-methoxy]-1-[4-pyridin-3-yl-4-(2-pyrrolidin-1-yl-ethoxy)-piperidin-1-yl]-ethanone], for which the inhibition at 10 µM is 101% in assay [1] and 100% in assay [2].

For the compound `COc1cc(C)c(S(=O)(=O)N2c3ccccc3OCC2COCC(=O)N2CCC(OCCN3CCCC3)(c3cccc(F)c3)CC2)c(C)c1` (centres unmarked) [Example 107, 1-[4-(3-fluorophenyl)-4-(2-pyrrolidin-1-yl-ethoxy)-piperidin-1-yl]-2-[[4-[(4-methoxy-2,6-dimethyl-phenyl)sulfonyl]-3,4-dihydro-2H-[1,4]benzoxazin-3-yl]-methoxy]-ethanone], the inhibition at 10 µM in assay [1] was found to be 97%; in assay [2] it was 98%.

As for `COc1cc(C)c(S(=O)(=O)N2c3ccccc3OCC2COCC(=O)N2CCC(OCCN3CCCC3)(c3ccncc3)CC2)c(C)c1` (centres unmarked) [Example 108, 2-[[4-[(4-methoxy-2,6-dimethyl-phenyl)sulfonyl]-3,4-dihydro-2H-[1,4]benzoxazin-3-yl]-methoxy]-1-[4-pyridin-4-yl-4-(2-pyrrolidin-1-yl-ethoxy)-piperidin-1-yl]-ethanone], the inhibition at 10 µM in assay [1] is 103%; in assay [2] it was 100%.

On to `Cc1cccc(Cl)c1S(=O)(=O)N1c2ccccc2OCC1COCC(=O)N1CCC(OCCN2CCCC2)(c2cccc(F)c2)CC1` (centres unmarked) [Example 109, 2-[[4-[(2-chloro-6-methyl-phenyl)sulfonyl]-3,4-dihydro-2H-[1,4]benzoxazin-3-yl]-methoxy]-1-[4-(3-fluorophenyl)-4-(2-pyrrolidin-1-yl-ethoxy)-piperidin-1-yl]-ethanone], for which the inhibition at 10 µM in assay [1] is 99%; in assay [2] it was 91%.

On to `O=C(COCC1COc2ccccc2N1S(=O)(=O)c1ccccc1C(F)(F)F)N1CCC(OCCN2CCCC2)(c2ccncc2)CC1` (centres unmarked) [Example 112, 1-[4-pyridin-4-yl-4-(2-pyrrolidin-1-yl-ethoxy)-piperidin-1-yl]-2-[[4-[[2-(trifluoromethyl)-phenyl]sulfonyl]-3,4-dihydro-2H-[1,4]benzoxazin-3-yl]-methoxy]-ethanone], for which the inhibition at 10 µM was determined as 81% in assay [1] and 100% in assay [2].

On to `COc1cc(C)c(S(=O)(=O)N(C)CCOCC(=O)N2CCC(OCCN3CCCC3)(c3cccnc3)CC2)c(C)c1C` [Example 113, 4-methoxy-N,2,3,6-tetramethyl-N-[2-[2-oxo-2-[4-pyridin-3-yl-4-(2-pyrrolidin-1-yl-ethoxy)-piperidin-1-yl]-ethoxy]-ethyl]-benzenesulfonic acid amide], for which the inhibition at 10 µM in assay [1] came out at 103%; in assay [2], 100%.

In the case of `COc1cc(C)c(S(=O)(=O)N(C)CCOCC(=O)N2CCC(OCCN3CCCC3)(c3cccc(F)c3)CC2)c(C)c1C` [Example 114, N-[2-[2-[4-(3-fluorophenyl)-4-(2-pyrrolidin-1-yl-ethoxy)-piperidin-1-yl]-2-oxo-ethoxy]-ethyl]-4-methoxy-N,2,3,6-tetramethyl-benzenesulfonic acid amide], the values for the inhibition at 10 µM in assay [1] and in assay [2] were 99% and 100%, respectively.
